From US11583498B2 (Wakamono Corporation, priority 2020, dated 2023)

Experiments:
[1] = Water dispersibility comparison (FIG. 1); format: physicochemical; details: dispersed in water, vials of FIG. 1
From the text: With reference to FIG. 1, water dispersibility was compared between the known 95% Tan IIA and nano Tan IIA obtained by the process according to the present invention, in which Vial A represented the known 95% Tan IIA dispersed in water, Vial B represented nano Tan IIA dispersed in water obtained by the process according to the present invention.

[2] = oral administration; cited from earlier work

water dispersibility [1]: water insoluble
SMILES: Cc1coc2c1C(=O)C(=O)c1c-2ccc2c1CCCC2(C)C [Tan IIA, Tanshinone IIA]
bioavailability [2]: low bioavailability
